Measurements reported in patent US20030231978A1, “Indoor air quality and antiseptic composition for use therein” (priority 2002, published 2003).
“Also recorded” adds a separate entry of the source. Like-named read-outs stand apart in the source and are kept apart here.

Columns and labels:
[1] = Solution and suspension levels of terpenes in water
Excerpt: The terpene and water were blended in a household blender for 30 seconds.
Examples of these levels are as follows.

[2] = system: Third stage (L3) Dirofilaria immitis larvae; assay: In-vitro larvacidal effect; format: cell-based
Method: Third stage (L3) Dirofilaria immitis larvae were suspended at a concentration of 85 larvae/ml. Larvae were deposited on plates with wells containing b-ionone at a concentration of 5 μM, 50 μM, and 750 μM, Tween® 80, and control media.
Plates were incubated at 37° C., 95% relative humidity (RH), and 5% CO2 for 6 days.
After incubation all wells were evaluated for appearance, motility, and molting to stage four (L4) at 24, 48, 72 hours, and 6 days.

Mycoplasma pneumoniae = assay: Effectiveness against Mycoplasma pneumoniae (color change of SP4 medium); format: cell-based; conditions: 40 hours treatment
Method: Terpene beta-ionone or L-carvone was first mixed well with Tween® 80 to have a final Tween® 80 concentration of 5 vol %. This mixture was then used to make concentrations of 2500 ppm in sterile phosphate buffer saline (PBS) by blending the mixture in PBS for 40 seconds. This 2500 ppm solution was then diluted to 500 ppm, 250 ppm, and 125 ppm with PBS.
PBS containing 25 ppm Tween® 80 or PBS alone was used to treat cells suspension as controls.
A log phase (2-3 -day old) culture of Mycoplasma pneumoniae was mixed with each of the above three concentrations of terpene at 1:1 (volume) ratio (in this case, I mL of cell suspension was added to 1 mL of terpene).
The culture and terpene mixture was then incubated at 37° C. for 40 hours. After 40 hours of treatment, 10-fold serial dilution was performed to 10 (−10) by first taking 0.1 mL of the treated culture suspension was added into 0.9 mL of fresh SP4 (Whitcomb (1983); SP4 media is commercially available (Remel, Lenexa, Kans., USA)). All the tubes were then incubated at 37° C., and a color change of the medium was used for the indication of the cells that either were killed or survived from the treatment. Color change was from red to yellow because Mycoplasma pneumoniae produces acid during its growth.
All the treatments were performed in duplicate.

[3] = Potency decay / breakdown of terpenes in presence of oxygen; format: physicochemical; conditions: 500 ppm solution
Excerpt: Terpenes will break down in the presence of oxygen. Citral, for example, is an aldehyde and will decay (oxygenate) over a period of days.

E. coli = conditions: cited from earlier work
H. pylori = conditions: cited from earlier work
[4] = in water without surfactant, high-shear blending

## Terpeniol
[1]; [4]
  Solution levels for various terpenes (maximum level solubilized): 500 ppm

## CC(=O)/C=C/C1=C(C)CCCC1(C)C [b-ionone]
[1]; [4]
  Solution levels for various terpenes (maximum level solubilized): 500 ppm
[2]; 5 μM
  Survival, motility and molting of larvae: no effect on the larvae
[2]; 50 μM, 6 day assay
  Survival, motility and molting of larvae: decreased survivability, motility, and molting; also recorded: Most larvae were dead by 6 days and none molted
[2]; 750 μM
  Survival, motility and molting of larvae: all larvae were dead or moribund within 24 hours
Mycoplasma pneumoniae; 62.5 ppm, 125 ppm and 250 ppm
  Color change of the first tube three days after the 10-fold dilution (killing effect): did not change color at all indicating a killing effect
Mycoplasma pneumoniae; 62.5 ppm
  Color change of tubes 6 days after the 10-fold dilution: only the first tube of 62.5 ppm beta-ionone changed color
Mycoplasma pneumoniae; 125 and 250 ppm
  Killing of cells, 6 days after the 10-fold dilution: may have completely killed all cells in 40 hours

## CC(C)=CCCC(C)=CC=O [Citral, 3,7-dimethyl-2,6-octadien-1-al]
[1]
  Level up to which a stable suspension of citral can be formed: up to 2500 ppm
[1]; true solution, high shear mixing, no surfactant
  Level up to which citral forms a solution in water: up to 1000 ppm
[3]
  Time to lose half its potency: 2-3 weeks
Human erythrocytes
  Concentration that will lyse human erythrocytes: about 1000 ppm
E. coli
  Citral in growth media that reduced the concentration of E. coli: more than 0.01%
  Citral in growth media with bactericidal effect: 0.08%

## CC(C)=CCC/C(C)=C/CO [Geraniol]
[1]
  Solution levels for various terpenes (maximum level solubilized): 500 ppm
H. pylori
  Concentration that inhibited the growth of H. pylori in vitro: 2 mg/L

## C=C(C)C1CC=C(C)C(=O)C1 (stereo not shown) [Carvone]
[1]; [4]
  Solution levels for various terpenes (maximum level solubilized): 500 ppm

## L-carvone
Mycoplasma pneumoniae; 62.5 ppm, 125 ppm and 250 ppm
  Color change of the first tube three days after the 10-fold dilution (killing effect): no killing effects
  Color change of the second and third tube 6 days after the 10-fold dilution: changed color
